Patent publication US20070207996A1, “Novel Compositions And Methods Of Treatment” (priority 2004, published 2007)

Experiments:
[1] = tested on: MX-1 breast carcinoma
[2] = in vivo; settings: mouse
[3] = tested on: P388 lymphocytic leukemia; assay: Drug combination efficacy study in advanced systemic P388 lymphocytic leukemia model; assay type: in vivo, mice
Experimental: (§1) Female B6D2F1 mice (Charles River Laboratories, Raleigh, N.C.) were used in these studies. All procedures were performed in accordance with protocols approved by the SB Institutional Animal Care and Use Committee, and met or exceeded the standards of the American Association for the Accreditation of Laboratory Animal Care (AAALAC), the United States Department of Health and Human Services and all local and federal animal welfare laws.
(§2) MAP and PCR tested P388 lymphocytic leukemia cell lines obtained originally from the National Cancer Institute Repository at Frederick Cancer Research Center, Frederick, Md., were used in these studies. P388 lymphocytic leukemia were maintained by serial i.p. transplantation in syngeneic B6D2F1 mice. […] Protocols for screening chemical agents and natural products against animal tumors and other biological systems. Cancer Chemother. […] All tumor tissues are presently in cryopreservation within the department of Molecular and Cellular Oncology.
(§3) For efficacy studies, P388 lymphocytic leukemia were harvested aseptically from the peritoneal cavity of donor mice, pooled, diluted with Earle's Balanced Salt Solution and trypan blue, and counted using a hemocytometer. An inoculum of 0.2 ml (5×10^6/ml) was implanted i.v. in the lateral tail vein of female BDF1 mice using a 25 gauge needle. The tumor inoculum was tested for bacterial contamination as determined by a 24-hr incubation in thioglycollate broth.
(§4) Each experiment included two groups of untreated tumor-bearing controls, and a titration of tumor cells in untreated animals (ranging from 10^1 to 10^5 so that drug-induced cell kill (NCK) could be calculated. Drug treatment was initiated 48 hrs after tumor implantation. Specific endpoints calculated from this model are % increase in median lifespan (% ILS) relative to the untreated control animals and log net change in tumor cell burden following therapy (NCK).

[4] = as above; assay type: in vivo, mice; settings: female, B6D2F1, mouse, in vivo
Experimental: as §1, §2, §3, §4

[5] = First Time in Human Study of Compound A, monotherapy once every 21 days; assay type: in vivo; settings: once every 21 day schedule, prior study in humans
[6] = cisplatin alone 4 mg/kg, ip q4dx3, first cisplatin study
[7] = cisplatin alone 4 mg/kg, repeat cisplatin study
[8] = doxorubicin alone 12 mg/kg, ip Days 2, 6, 10
[9] = ip, single agent, ip q4dx3 Days 2, 6, 10, irinotecan study, read-out: MTD
[10] = irinotecan alone 54 mg/kg, ip q4dx3
[11] = irinotecan alone 150 mg/kg (MTD), ip q4dx3
[12] = 5FU 26 mg/kg alone, ip Days 2, 6, 10
[13] = 5FU 43 mg/kg alone, ip Days 2, 6, 10
[14] = 5FU 72 mg/kg alone, ip Days 2, 6, 10
[15] = 5FU 120 mg/kg alone, ip Days 2, 6, 10
[16] = ip, single agent, ip Days 2, 6, 10, gemcitabine study, read-out: MTD
[17] = Compound A 2.6 mg/kg alone, ip Days 2, 6, 10, 5FU study
[18] = Compound A 4.3 mg/kg alone, ip Days 2, 6, 10, 5FU study
[19] = Compound A alone 4.3 mg/kg (MTD), ip q4dx3, first cisplatin study
[20] = Compound A alone 4.3 mg/kg (MTD), doxorubicin study
[21] = Compound A alone 6 mg/kg (MTD), irinotecan study
[22] = Compound A alone 7.2 mg/kg (MTD), repeat cisplatin study
[23] = Compound A alone 10 mg/kg, gemcitabine study
[24] = gemcitabine alone 200 mg/kg, ip Days 2, 6, 10

SMILES: CCCCCOC(=O)Nc1nc(=O)n([C@@H]2O[C@H](C)[C@@H](O)[C@H]2O)cc1F [CAP, Capecitabine, reference compound]
- MX-1 tumor growth ([1]; CAP alone 500 and 250 mg/kg, daily for two 5 day cycles with 2 day rest): slight delay in MX-1 tumor growth
- MTD [2]: 500 mg/kg

SMILES: N.N.[Cl][Pt][Cl] [Cisplatin, cisplatin, reference compound]
- % ILS (increase in life span) [3, 6]: 200%
- log cell kill (net cell kill) [3, 6]: 3.7 log
- % ILS (increase in life span) [3, 7]: 133%
- log cell kill (net cell kill) [3, 7]: 1.7 log

SMILES: COc1cccc2c1C(=O)c1c(O)c3c(c(O)c1C2=O)C[C@@](O)(C(=O)CO)C[C@@H]3O[C@H]1C[C@H](N)[C@H](O)[C@H](C)O1 [Doxorubicin, doxorubicin, reference compound]
- % ILS (increase in life span) [3, 8]: 89%
- log cell kill (net cell kill) [3, 8]: no log cell kill

SMILES: CCc1c2c(nc3ccc(OC(=O)N4CCC(N5CCCCC5)CC4)cc13)-c1cc3c(c(=O)n1C2)COC(=O)[C@]3(O)CC [Irinotecan, irinotecan, reference compound]
- MTD [4, 9]: 150 mg/kg
- % ILS (increase in life span) [3, 10]: 211%
- log cell kill (net cell kill) [3, 10]: 4.8 log
- % ILS (increase in life span) [3, 11]: > 450%
- log cell kill (net cell kill) [3, 11]: > 6.9 log

SMILES: O=c1[nH]cc(F)c(=O)[nH]1 [Compound 5FU, 5-fluorouracil, reference compound]
- % ILS [3, 12]: 33%
- Net Cell Kill [3, 12]: [0] log
- % ILS [3, 13]: 55%
- Net Cell Kill [3, 13]: [0] log
- Net Cell Kill ([3]; 5FU 43 mg/kg alone, ip Days 2, 6, 10, listed as 5 FU): no log cell kill
- % ILS [3, 14]: 44%
- Net Cell Kill [3, 14]: [0] log
- % ILS [3, 15]: 22%
- Net Cell Kill [3, 15]: [0] log
- toxicity at dose level ([3]; 5FU 200 mg/kg alone, ip Days 2, 6, 10): Toxic

SMILES: CS(=O)(=O)O.Cc1ccc(C(=O)N(CCCN)[C@@H](c2nc3cc(Cl)ccc3c(=O)n2Cc2ccccc2)C(C)C)cc1 [Compound A, N-(3-aminopropyl)-N-[(1R)-1-[7-chloro-3,4-dihydro-4-oxo-3-(phenylmethyl)-2-quinazolinyl]-2-methylpropyl]-4-methylbenzamide, mesylate salt]
- activity against MX-1 ([1]; Compound A alone at MTD of 10 mg/kg, q4dx3): refractory
- MTD [2]: 10 mg/kg
- MTD [5]: 18 mg/m^2
- MTD ([4]; intraperitoneal, increased from 7.2 alone, repeat cisplatin study, read-out: MTD of Compound A in combination with cisplatin): 12 mg/kg
- MTD ([4]; ip, single agent, ip Days 2, 6, 10, doxorubicin study, read-out: MTD): 4.3 mg/kg
- MTD [4, 16]: ≥ 10 mg/kg
- MTD ([4]; ip, single agent, ip q4dx3, 5FU study, read-out: MTD): 7.2 mg/kg
- MTD ([4]; ip, single agent, ip q4dx3, first cisplatin study, read-out: MTD): 4.3 mg/kg
- MTD ([4]; ip, single agent, ip q4dx3, repeat cisplatin study, read-out: MTD): 7.2 mg/kg
- MTD [4, 9]: 6 mg/kg
- % ILS [3, 17]: 78%
- Net Cell Kill [3, 17]: [0] log
- % ILS [3, 18]: 122%
- Net Cell Kill [3, 18]: [1.1] log
- % ILS ([3]; Compound A 7.2 mg/kg (MTD) alone, ip Days 2, 6, 10, 5FU study): 178%
- toxicity at dose level ([3]; Compound A 12 mg/kg alone, ip Days 2, 6, 10, 5FU study): Toxic
- toxicity at dose level ([3]; Compound A 20 mg/kg alone, ip Days 2, 6, 10, 5FU study): Toxic
- % ILS (increase in life span) [3, 19]: 144%
- log cell kill (net cell kill) [3, 19]: 1.8 log
- % ILS (increase in life span) [3, 20]: 156%
- log cell kill (net cell kill) [3, 20]: 1.3 log
- % ILS (increase in life span) [3, 21]: 167%
- log cell kill (net cell kill) [3, 21]: 3.0 log
- % ILS (increase in life span) [3, 22]: 144%
- log cell kill (net cell kill) [3, 22]: 2.2 log
- % ILS (increase in life span) [3, 23]: 211%
- log cell kill (net cell kill) [3, 23]: 6.2 log
- MTD of Compound A in combination versus alone ([3]; combined with 0.86 or 1.44 mg/kg cisplatin, first cisplatin study): higher MTD

SMILES: Nc1ccn([C@@H]2O[C@H](CO)[C@@H](O)C2(F)F)c(=O)n1 [Gemcitabine, gemcitabine, reference compound]
- MTD [4, 16]: ≥ 200 mg/kg
- % ILS (increase in life span) [3, 24]: 289%
- log cell kill (net cell kill) [3, 24]: > 7.3 log
- efficacy at lower doses ([3]; gemcitabine alone at 120 mg/kg or less): less effective
